Measurements published in patent US20130090377A1, “COMPOSITION COMPRISING COUMESTROL OR A BEAN EXTRACT CONTAINING COUMESTROL” (AMOREPACIFIC CORPORATION, priority 2010, published 2013).

Experiments:
C2C12 muscle cells [1] = assay: Expression of mitochondria-associated genes at the protein level by western blotting in differentiated C2C12 muscle cells; assay type: cell-based, mouse; parameters: dose or concentration left out as unconfirmed; settings: coumestrol for 24 hours, C2C12 differentiated for a week, FIG. 2
Method: (§1) C2C12 muscle cells derived from mouse (mouse myoblasts, ATCC) were differentiated for a week and then treated with […] coumestrol for 24 hours. Then, the expression of mitochondria-associated genes was confirmed at the protein level by western blotting. The tested genes were PGC1 which induces mitochondria biosynthesis and NDUFA9 and ATP5a which are proteins that constitute the mitochondrial electron transport chain.

C2C12 muscle cells [2] = assay: Quantity of mitochondria in cells by fluorescence after MitoTracker Green staining; assay type: cell-based, mouse; settings: coumestrol-treated C2C12 muscle cells, FIG. 3
Method: as §1
Also, the quantity of mitochondria in cells was measured by fluorescence after staining with MitoTracker Green (Invitrogen).

SIRT1 = target: T1, SIRT1 (Homo sapiens, UniProt Q96EB6); assay: SIRT1 activity assay kit (Biomol), SIRT1 activating effect; assay type: biochemical; settings: FIG. 1
T1 construct: Biomol
T1 sequence (Q96EB6 1-747): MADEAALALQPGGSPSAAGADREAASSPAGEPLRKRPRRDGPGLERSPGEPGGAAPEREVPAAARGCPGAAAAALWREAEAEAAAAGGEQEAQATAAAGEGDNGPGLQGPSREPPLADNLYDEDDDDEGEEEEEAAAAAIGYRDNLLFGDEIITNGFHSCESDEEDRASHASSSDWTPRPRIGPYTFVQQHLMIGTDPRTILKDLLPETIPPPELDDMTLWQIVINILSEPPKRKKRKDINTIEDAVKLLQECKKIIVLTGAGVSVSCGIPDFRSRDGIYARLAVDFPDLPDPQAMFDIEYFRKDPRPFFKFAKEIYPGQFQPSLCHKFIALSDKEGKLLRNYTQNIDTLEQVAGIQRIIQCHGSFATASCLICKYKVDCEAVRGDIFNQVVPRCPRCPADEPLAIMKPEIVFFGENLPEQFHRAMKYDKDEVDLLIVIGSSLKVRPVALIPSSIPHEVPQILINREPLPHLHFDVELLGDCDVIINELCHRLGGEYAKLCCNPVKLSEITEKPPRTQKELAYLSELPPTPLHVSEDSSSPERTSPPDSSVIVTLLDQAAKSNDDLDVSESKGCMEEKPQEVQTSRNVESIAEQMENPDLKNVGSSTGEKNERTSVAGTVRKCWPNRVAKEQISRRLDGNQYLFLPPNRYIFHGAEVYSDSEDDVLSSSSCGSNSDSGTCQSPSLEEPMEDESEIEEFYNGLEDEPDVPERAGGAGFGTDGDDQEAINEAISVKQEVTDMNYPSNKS
Method: It was tested whether coumestrol can activate SIRT1 using the SIRT1 activity assay kit (Biomol). Cells were treated with 10 μM coumestrol. 50 µM resveratrol (Res), which is known to activate SIRT1, was used as positive control and 1 mM nicotinamide (NAM), which is an inhibitor of SIRT1, was used as negative control.

O=c1oc2cc(O)ccc2c2oc3cc(O)ccc3c12 [coumestrol, 3,9-dihydroxy-6H-benzofuro(3,2-c)(1)benzopyran-6-one]
expression of mitochondria-associated genes (PGC1, NDUFA9, ATP5a) at the protein level vs untreated group (C2C12 muscle cells [1]): remarkable increase
quantity of mitochondria in cells vs untreated group (C2C12 muscle cells [2]): remarkable increase
SIRT1 activating effect compared with resveratrol (positive control) (SIRT1; 10 μM coumestrol vs 50 µM resveratrol): comparable to that of resveratrol
SIRT1 activity relative to the untreated group (SIRT1; 10 μM coumestrol): increased
